According to publication PMC4721545 (Bioscience Reports, 2015):
Like-named read-outs stand apart in the source and are kept apart here.

Tests used:
EAE in C57BL/6 mice [1] = experiment: Chronic EAE induced with MOG35-55, clinical score and body weight; format: in vivo, mouse; conditions: 800 μg/200 μl daily i.p., day 3 to 27 p.i.; for mean clinical score: EAE control 1.29±1.08, P<0.001; for maximum clinical score: EAE control 2.78; for body weight loss vs EAE mice: P<0.001
Description: Female C57BL/6 mice (8–10 weeks old and 18–20 g of body weight) were purchased from Vital River Laboratory Animal Technology Co. Ltd. All experiments were conducted in accordance with the guidelines of the International Council for Laboratory Animal Science. The study was approved by the Ethics Committee of Shanxi Datong University. […].
Mouse myelin oligodendrocyte glycoprotein peptide 35–55 (MOG35–55, MEVGW […]) was produced in an automatic synthesizer (CL. Bio-Scientific Company). The purity of the peptide was >95% as determined by HPLC. Chronic EAE was induced by subcutaneous immunization on the upper dorsal flanks with 300 μg of MOG35–55 in Freund's complete adjuvant (Sigma) supplemented with 3 mg/ml of M. Tuberculosis H37Ra (BD Difco; […]). Mice were injected intraperitoneally (i.p.) with 500 ng of pertussis toxin (Enzo Life Sciences) on days 0 and 2 post-immunization (p.i.). Animals were weighed and evaluated for clinical score every other day in a blinded fashion by at least two investigators. Clinical score of EAE was graded according to the following criteria: 0: healthy; 1: limp tail; 2: ataxia and/or paresis of hind limbs; 3: paralysis of hind limbs and/or paresis of forelimbs; 4: tetraparalysis; and 5: moribund or death. When the clinical score of EAE reaches 3, we give suitable care including softening of food with water in dish and additional nutrients such as egg, making mice easy to obtain food and nutrition.
Mice were divided into three groups: Fasudil-treated group (n=8), FSD-C10-treated group (n=8) and double-distilled water (ddH2O) EAE control group (n=9). […] Mice were i.p. injected with 800 μg/200 μl/daily from day 3 to day 27 p.i. Mice that received the same volume of ddH2O i.p. served as control.

primary neurons [2] = experiment: MTT cell viability assay, primary neurons; format: cell-based, mouse; conditions: 24 h
Description: (§1) Embryonic 18-day-mouse cortex (Shanghai SLAC Laboratory Animal Co. Ltd) were dissected under a microscope and then triturated into the suspension in Neurobasal-A-medium (Gibco) supplemented with 2% B27 (Gibco), 100 units/ml penicillin and 100 μg/ml streptomycin (Gibco). The cells were then plated on cover slips coated with poly-D-lysine (0.1 mg/ml; Sigma) at a density of 1×10^6 cells per cm^2 at 37°C in a humidified cell incubator under a 95%/5% (v/v) mixture of air and CO2, with the cell media being replaced every 48 h. After 7 days, neurons were incubated with different conditioned medium.
(§2) Cell viability of BV-2 microglia and primary neurons was detected by MTT assay. In brief, 100 μl of MTT solution (0.5 mg ml^−1, Duchefa) was added to cultured cells and incubated for an additional 4 h at 37°C, until the medium turned purple. Absorbance at 570 nm was measured by a microplate reader after addition of 100 μl DMSO. Each experiment was performed in triplicate and repeated three times with separate cell preparations. Results were expressed as a percentage of the control value at 570 nm.

primary neurons [3] = experiment: LDH release cell death assay, primary neurons; format: cell-based; conditions: 24 h
Description: as §1
(§3) The death of BV-2 microglia and primary neurons was measured by LDH release in the culture medium. Levels of LDH release in supernatants of cultured cells were measured using the cytotoxicity detection kit (Promega) according to the manufacturer's protocol. Maximum LDH release (A570) was determined following the treatment of cells with lysis buffer and considered as control value (100% LDH release). Data were expressed as a percentage of the control value.

BV-2 microglia [4] = experiment: MTT cell viability assay, BV-2 microglia; format: cell-based; conditions: 24 h
Description: (§4) The BV-2 immortalized microglial cell line was purchased from ShenKe Biological Technology Co. and cultured in Dulbecco's modified Eagle's medium (DMEM; Gibco), supplemented with 10% FBS (Gibco), 100 units/ml penicillin and 100 μg/ml streptomycin (Gibco) at 37°C in a humidified cell incubator under a 95%/5% (v/v) mixture of air and CO2. Cells were plated on a 96-well plate at a density of 1.0×10^6 /ml (200 μl/well), on a 24-well plate at 1.0×10^6/ml (500 μl/well) and at 0.2×10^6 /ml (500 μl/well) for different experiments.
as §2

BV-2 microglia [5] = experiment: LDH release cell death assay and morphology, BV-2 microglia; format: cell-based; conditions: for BV-2 microglia cell death / morphology: 75 μg/ml and 200 μg/ml, 48 h culture; for death of BV-2 microglia (LDH release): 24 h
Description: as §4, §3

primary neurons [6] = experiment: Neurite outgrowth of primary neurons (MAP-2 staining, Image J); format: cell-based, mouse; conditions: PBS control 4.1 μm; P<0.01
Description: as §1
(§5) Fluorescent photomicrographs of neurons with microtubule-associated protein-2 (MAP-2) staining or photomicrographs of BV-2 cells under inverted microscope were captured with a 20× objective and a digital camera of Olympus microscope. Images were acquired from randomly selected fields for each group. The length of the longest neurite outgrown or dendritic formation in the cell body was measured by an investigator blinded to the experimental groups using a public-domain image-processing program (Image J, http://rsb.info.nih.gov/ij). Average lengths of neuronal neurite or dendritic formation were used for quantification.

BV-2 microglia [7] = experiment: Dendritic formation of BV-2 microglia (Image J); format: cell-based; conditions: for breakage of dendritic branches on BV-2 microglia: 75 and 200 μg/ml; for dendritic length of BV-2 microglia (mean): PBS control 2.94 μm, P<0.001
Description: as §4, §5

[8] = system: BDNF, GDNF, NT-3, Nogo protein in brain; experiment: Western blot of neurotrophic factors and Nogo in brain of EAE mice; format: in vivo, mouse; conditions: day 28 p.i., vs control EAE mice; for expression of BDNF protein in brain / expression of GDNF protein in brain / expression of NT-3 protein in brain: P<0.05
Description: (§6) Mice were divided into three groups: Fasudil-treated group (n=8), FSD-C10-treated group (n=8) and double-distilled water (ddH2O) EAE control group (n=9). […] Mice were i.p. injected with 800 μg/200 μl/daily from day 3 to day 27 p.i. Mice that received the same volume of ddH2O i.p. served as control. Protein from brains was homogenized on ice with an extraction kit and protein concentration was determined by a Bradford protein assay. Protein extracts (30 μg) were separated by SDS/PAGE and transferred on to a PVDF membrane (Immobilon-P; Millipore Corp.). The membranes were then incubated with anti-GDNF (glial cell line-derived neurotrophic factor; 1:1000, Epitomics), anti-BDNF (brain-derived neurotrophic factor; 1:1000, Promega), anti-NT-3(neurotrophin-3; 1:1000, Epitomics), anti-Nogo(1:1000, Epitomics), anti-iNOS (inducible nitric oxide synthase) (1:1000, Cell Signaling Technology) […], anti-arginase-1 ([…]) (1:1000, BD Bioscience) and anti-β-actin (1:10000, Cell Signaling Technology) for overnight at 4°C. Bands were visualized by horseradish peroxidase (HRP-) conjugated secondary antibodies and ECL kit under ECL system (GE Healthcare Life Sciences).

[9] = system: iNOS and Arg-1 expression in brain; experiment: Western blot of iNOS and Arg-1 in brain of EAE mice (M1/M2 polarization); format: in vivo, mouse; conditions: day 28 p.i.
Description: as §6

C57BL/6 mice = experiment: Test of vasodilation in naive mice; format: in vivo; conditions: healthy mice, 800 μg/mouse i.p., after 30 and 60 min
mice = format: in vivo; conditions: within 2 h
Description: […]. […] Given that FSD-C10 was well tolerant in vivo, further pre-clinical studies are valuable for the treatment of MS.
[…]. […] TEXT PRINTED IN THE PICTURE: (b) Fasudi: Mortality (%): 0% (800 μg /mouse/day); Mortality (%): 33% (1600 μg /mouse/day); Mortality (%): 67% (2000 μg /mouse/day) | (b) FSD-C10: Mortality (%): 0% (800 μg /mouse/day); Mortality (%): 0% (1600 μg /mouse/day); Mortality (%): 0% (2000 μg /mouse/day)

ROCK I = target: T1, ROCK I (Homo sapiens, UniProt Q13464); experiment: ROCK inhibition by mobility shift assay, ROCK I; format: biochemical; conditions: ATP con. 3.6 μM
T1 construct: purchased Carna
Description: (§7) Staurosporine (Sigma) was used as positive control and saline was used as negative control.
(§8) DMSO (100 μl) was added to two empty wells for no compound control and no enzyme control in the same 96-well plate. Mobility shift assay was performed according to the manufacturer's protocol. […] The mixtures (5 μl) were incubated with 2.5× enzyme solution (10 μl) in 384-well plate at room temperature for 10 min and control was performed by adding 5 μl of kinase buffer.
(§9) Percentinhibition=max−conversion/max−min×100
(§10) where max stands for DMSO control; min stands for low control.

ROCK II = target: T2, ROCK II (Homo sapiens, UniProt O75116); experiment: ROCK inhibition by mobility shift assay, ROCK II; format: biochemical; conditions: ATP con. 5.3 μM
T2 construct: purchased Carna
Description: as §7, §8, §9, §10

EAE in C57BL/6 mice [10] = system: EAE in C57BL/6 mice; design: method as in PMID 24749492; conditions: previous studies; cited from earlier work

T1 sequence (Q13464 whole entry): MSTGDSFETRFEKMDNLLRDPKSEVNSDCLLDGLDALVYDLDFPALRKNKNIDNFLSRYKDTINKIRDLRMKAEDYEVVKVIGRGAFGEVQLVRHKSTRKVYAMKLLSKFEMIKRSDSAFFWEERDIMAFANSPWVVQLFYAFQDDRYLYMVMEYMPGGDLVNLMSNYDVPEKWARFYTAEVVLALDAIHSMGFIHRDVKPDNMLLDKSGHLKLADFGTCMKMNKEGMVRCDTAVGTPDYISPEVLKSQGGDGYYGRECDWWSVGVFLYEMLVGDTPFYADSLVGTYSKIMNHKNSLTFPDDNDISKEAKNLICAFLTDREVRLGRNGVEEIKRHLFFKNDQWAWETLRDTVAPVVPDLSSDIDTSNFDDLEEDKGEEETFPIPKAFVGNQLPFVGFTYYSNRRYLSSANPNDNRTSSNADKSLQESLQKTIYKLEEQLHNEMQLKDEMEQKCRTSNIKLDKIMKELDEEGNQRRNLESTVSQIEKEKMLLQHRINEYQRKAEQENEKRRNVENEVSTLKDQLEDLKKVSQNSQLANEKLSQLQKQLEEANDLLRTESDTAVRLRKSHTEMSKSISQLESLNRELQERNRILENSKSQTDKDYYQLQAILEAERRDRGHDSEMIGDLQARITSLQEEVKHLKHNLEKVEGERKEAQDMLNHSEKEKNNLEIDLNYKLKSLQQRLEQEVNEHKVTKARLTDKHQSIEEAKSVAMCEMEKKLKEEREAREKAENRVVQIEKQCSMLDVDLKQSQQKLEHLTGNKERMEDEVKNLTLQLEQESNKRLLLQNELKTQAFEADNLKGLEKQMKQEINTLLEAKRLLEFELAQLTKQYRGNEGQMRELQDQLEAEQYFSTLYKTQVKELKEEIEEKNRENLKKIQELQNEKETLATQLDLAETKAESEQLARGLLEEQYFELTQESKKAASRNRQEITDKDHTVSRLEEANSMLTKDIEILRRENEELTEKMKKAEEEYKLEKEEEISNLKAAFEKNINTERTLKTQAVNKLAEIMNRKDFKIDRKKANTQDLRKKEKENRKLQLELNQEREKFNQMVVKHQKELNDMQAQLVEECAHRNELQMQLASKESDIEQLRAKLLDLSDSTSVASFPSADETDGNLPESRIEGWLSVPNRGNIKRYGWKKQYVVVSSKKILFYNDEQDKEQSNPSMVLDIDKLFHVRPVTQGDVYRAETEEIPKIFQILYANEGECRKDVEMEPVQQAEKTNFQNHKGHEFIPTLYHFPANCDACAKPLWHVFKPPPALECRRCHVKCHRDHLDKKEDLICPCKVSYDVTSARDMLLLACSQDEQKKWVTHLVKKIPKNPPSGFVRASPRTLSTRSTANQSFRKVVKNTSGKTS
T2 sequence (O75116 whole entry): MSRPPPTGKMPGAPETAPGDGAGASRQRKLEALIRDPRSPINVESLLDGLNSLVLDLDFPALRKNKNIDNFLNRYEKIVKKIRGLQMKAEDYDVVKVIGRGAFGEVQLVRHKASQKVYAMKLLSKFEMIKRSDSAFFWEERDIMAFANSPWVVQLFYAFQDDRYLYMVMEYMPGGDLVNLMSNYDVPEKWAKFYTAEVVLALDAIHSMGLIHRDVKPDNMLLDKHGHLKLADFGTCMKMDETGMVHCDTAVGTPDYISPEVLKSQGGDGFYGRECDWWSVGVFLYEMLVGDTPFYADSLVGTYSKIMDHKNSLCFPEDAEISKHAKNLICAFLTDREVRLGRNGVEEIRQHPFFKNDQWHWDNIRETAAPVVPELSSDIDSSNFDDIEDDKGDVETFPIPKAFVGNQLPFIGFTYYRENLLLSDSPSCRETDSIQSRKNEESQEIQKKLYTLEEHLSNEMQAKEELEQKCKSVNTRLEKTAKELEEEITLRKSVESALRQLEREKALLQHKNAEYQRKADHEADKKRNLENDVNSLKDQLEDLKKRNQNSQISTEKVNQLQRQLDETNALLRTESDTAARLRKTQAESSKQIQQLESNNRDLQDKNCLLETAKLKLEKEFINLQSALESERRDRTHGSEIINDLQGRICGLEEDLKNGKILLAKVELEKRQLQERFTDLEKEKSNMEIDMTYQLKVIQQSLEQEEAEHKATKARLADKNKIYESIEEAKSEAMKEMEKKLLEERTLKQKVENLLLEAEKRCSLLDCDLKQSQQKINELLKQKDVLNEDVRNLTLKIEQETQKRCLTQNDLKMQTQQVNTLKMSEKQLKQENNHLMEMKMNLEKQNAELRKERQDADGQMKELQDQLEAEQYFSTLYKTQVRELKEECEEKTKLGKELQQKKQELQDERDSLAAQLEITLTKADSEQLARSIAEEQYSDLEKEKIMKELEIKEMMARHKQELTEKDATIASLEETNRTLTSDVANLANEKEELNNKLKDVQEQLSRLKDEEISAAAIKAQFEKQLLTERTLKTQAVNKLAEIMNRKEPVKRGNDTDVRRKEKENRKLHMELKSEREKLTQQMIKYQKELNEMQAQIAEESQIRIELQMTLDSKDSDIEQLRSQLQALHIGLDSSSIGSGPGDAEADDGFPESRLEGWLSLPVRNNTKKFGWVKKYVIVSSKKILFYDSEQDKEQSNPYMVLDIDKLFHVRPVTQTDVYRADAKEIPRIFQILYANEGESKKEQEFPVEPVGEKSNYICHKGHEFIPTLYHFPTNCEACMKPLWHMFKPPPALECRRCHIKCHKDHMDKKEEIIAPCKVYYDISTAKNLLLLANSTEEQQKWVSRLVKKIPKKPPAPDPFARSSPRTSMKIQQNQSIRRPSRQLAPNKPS

Compound	mean clinical score (EAE in C57BL/6 mice [1])	maximum clinical score (EAE in C57BL/6 mice [1])	body weight loss vs EAE mice (EAE in C57BL/6 mice [1])	viability of primary neurons (MTT) (primary neurons [2]; 75 μg/ml, vs control)	viability of primary neurons (MTT) (primary neurons [2]; 0.6–15 μg/ml)	death of primary neurons (LDH release) (primary neurons [3]; 0.6–15 μg/ml)	viability of BV-2 microglia (MTT) (BV-2 microglia [4]; 75 μg/ml, vs control)	viability of BV-2 microglia (MTT) (BV-2 microglia [4]; 0.6–15 μg/ml)	BV-2 microglia cell death / morphology (BV-2 microglia [5])	death of BV-2 microglia (LDH release) (BV-2 microglia [5]; 0.6–15 μg/ml)	neurite length of primary neurons (mean) (primary neurons [6]) [μm]	breakage of dendritic branches on BV-2 microglia (BV-2 microglia [7])	dendritic length of BV-2 microglia (mean) (BV-2 microglia [7]) [μm]	expression of Nogo protein in brain [8]	expression of BDNF protein in brain [8]	expression of GDNF protein in brain [8]	expression of NT-3 protein in brain [8]	Arg-1 expression in brain [9]	iNOS expression in brain [9]	vasodilation on the foot of mice (C57BL/6 mice)	other results
Cl.O=S(=O)(c1cccc2cnccc12)N1CCCNCC1 [Fasudil, hexahydro-1-(5-isoquinolinyl-sulfonyl)-1H-1,4-diazepine monohydrochloride, reference compound]	0.04±0.07	0.19	less body weight loss	significant decrease	did not influence	did not influence	significant decrease	did not influence	obvious cell death	did not influence	6.6	caused significant breakage	12.5	slightly, although not significantly, declined	significantly enhanced	significantly enhanced	significantly enhanced	elevated	inhibited	obvious vasodilation	Mortality (%) (mice; 800 μg/mouse i.p.): 0%; Mortality (%) (mice; 1600 μg/mouse i.p.): 33%; Mortality (%) (mice; 2000 μg/mouse i.p.): 67%
O=S(=O)(c1cccc2cnccc12)N1CCC[C@H]1CCl [FSD-C10]	0.28±0.23	0.50	less body weight loss	did not lead to significant decrease	did not influence	did not influence	did not lead to significant decrease	did not influence	good cell morphology	did not influence	10.5	did not cause significant breakage	12.5	slightly, although not significantly, declined	significantly enhanced	significantly enhanced	significantly enhanced	elevated	inhibited	relatively weak vasodilator effect	IC50 (ROCK I): 1140 nM; IC50 (ROCK II): 711 nM; death of primary neurons (LDH release) (primary neurons [3]; 75 μg/ml, vs control): did not lead to significant decrease; death of BV-2 microglia (LDH release) (BV-2 microglia [5]; 75 μg/ml, vs control): did not lead to significant decrease; BV-2 cell death at higher doses with the extension of time (BV-2 microglia [5]; ≥200 μg/ml, result not shown): caused cell death; clinical severity of EAE (EAE in C57BL/6 mice [10]): ameliorated
